In paper PMC4922860, “Atypical calcium regulation of the PKD2-L1 polycystin ion channel” (eLife, 2016):
Changes are numbered by the printed parent chain.

Tests used:
Format in all cases: cell-based
[1] = molecular target: T1, human PKD2-L1, homomeric channel (Homo sapiens, UniProt Q9P0L9, D523N); assay: whole-cell patch clamp, current potentiation, voltage ramps
T1 construct: gene PKD2L1; full-length isoform 1 in pTracer CMV2, transiently transfected HEK 293T cells; homotetramer; whole-cell patch clamp
T1 sequence (Q9P0L9 1-805 D523N): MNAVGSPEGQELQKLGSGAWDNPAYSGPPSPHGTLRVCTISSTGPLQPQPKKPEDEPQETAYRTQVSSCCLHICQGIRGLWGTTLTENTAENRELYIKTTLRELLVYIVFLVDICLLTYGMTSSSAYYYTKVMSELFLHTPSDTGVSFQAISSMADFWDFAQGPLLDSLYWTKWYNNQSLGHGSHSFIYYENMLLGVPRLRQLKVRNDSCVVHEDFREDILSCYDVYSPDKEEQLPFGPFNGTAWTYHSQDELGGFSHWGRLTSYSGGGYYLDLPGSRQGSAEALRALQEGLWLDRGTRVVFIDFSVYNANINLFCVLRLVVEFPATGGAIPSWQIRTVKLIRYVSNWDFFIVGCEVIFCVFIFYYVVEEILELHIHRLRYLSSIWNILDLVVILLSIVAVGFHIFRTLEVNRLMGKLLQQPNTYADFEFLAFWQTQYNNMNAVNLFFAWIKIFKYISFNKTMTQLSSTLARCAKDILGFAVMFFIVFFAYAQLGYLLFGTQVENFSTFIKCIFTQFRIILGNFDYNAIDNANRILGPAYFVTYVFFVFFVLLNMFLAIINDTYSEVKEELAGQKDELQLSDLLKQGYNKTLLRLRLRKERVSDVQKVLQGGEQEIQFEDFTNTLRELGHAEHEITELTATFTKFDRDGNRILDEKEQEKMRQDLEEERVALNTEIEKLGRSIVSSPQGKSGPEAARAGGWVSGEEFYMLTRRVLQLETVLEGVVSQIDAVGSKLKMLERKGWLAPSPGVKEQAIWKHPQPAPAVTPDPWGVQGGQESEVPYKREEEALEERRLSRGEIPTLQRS

[2] = molecular target: T2, human PKD2-L1 (Wt), homomeric channel (Homo sapiens, UniProt Q9P0L9); assay: as above
T2 construct: gene PKD2L1; full-length isoform 1 in pTracer CMV2, transiently transfected HEK 293T cells; homotetramer; whole-cell patch clamp
T2 sequence (Q9P0L9 1-805): T1 sequence (Q9P0L9 1-805 D523N) with N523D

[3] = molecular target: T2, human PKD2-L1 (Wt), homomeric channel; assay: whole-cell patch clamp, current block, voltage ramps, Hill fit
[4] = molecular target: T1, human PKD2-L1, homomeric channel; assay: as above

| SMILES | EC50 [1] | EC50 [2] | IC50 [3] | IC50 [4] |
| --- | --- | --- | --- | --- |
| Clc1ccc(C(c2ccc(Cl)cc2)n2cc[n+](CC(OCc3ccc(Cl)cc3Cl)c3ccc(Cl)cc3Cl)c2)cc1 (stereo not shown) [calmidazolium] | 9 ± 7 µM | 2.6 ± 6 µM | – | – |
| CCCCOc1cc(C(=O)NCCN(CC)CC)c2ccccc2n1 [dibucaine] | – | – | 31 ± 5 µM | 23 ± 3 µM |
